{
  "source": "patent US6555139B2",
  "about": "“Preparation of micron-size pharmaceutical particles by microfluidization” (Wockhardt Europe Limited, priority 1999, dated 2003)",
  "key": {"[1]": {"experiment": "Particle size distribution (PSD) of suspensions before/after microfluidization (Mastersizer)", "type": "physicochemical", "conditions": "5,000 psi, 3 passes", "excerpt": "The Microfluidizer M-210 EH operates at higher pressures up to 35000 psi. The process stream enters the inlet reservoir. An air-powered intensifier pumping system accelerates the process stream, propelling into a processing zone called the interaction chamber. This chamber consists of microchannels, where the process stream separates into two. It changes direction and collides into a single stream again. […] Then product is accelerated to a high velocity and is subjected to shear, impact and cavitation. This causes particles and droplets to reduce in size as small as sub-micron depending upon the processing pressure and number of cycles applied. […] After completion of the microfluidization step, the sized particles in suspension pass through pipe 18 out of the system, with a heat exchanger 20 shown in a preferred system to enable on-line drying of the micro-suspension resulting from the microfluidization. The microfluidization process is most conveniently practiced with operating pressures between 2000 pounds per square inch (psi) and 20,000 psi to provide resulting particle sizes of the dimensions most appropriate for pharmaceutical dosing. The process will often progress with increasingly higher operating pressures in each subsequent pass, such as using from 2,000 to 6,000 psi in a first pass, 5,000 to 11,000 psi in a second pass, and from 9,000 to 20,000 psi in a third pass (if needed). Each pass will generally be higher than a previous pass, or operating pressures may remain constant or decrease, depending upon the specific results desired in the processing."}, "[2]": {"conditions": "cited from earlier work"}, "[3]": {"conditions": "micronized drug + Klucel LF + micronized β-cyclodextrin + Cremophor RH-40 + water"}, "[4]": {"conditions": "micronized drug + Klucel LF + unmicronized β-cyclodextrin + Cremophor RH-40 + water"}},
  "note": "Like-named read-outs stand apart in the source and are kept apart here.",
  "data": [
    {"molecule": "CCc1cccc2c3c([nH]c12)C(CC)(CC(=O)O)OCC3", "note": "(stereo not drawn) [Etodolac, etodolac]", "values": [
      {"measurement": "PSD of Output Material After Processing, d (0.9)", "setting": "[1]; [3]", "result": 12.15, "unit": "μm"},
      {"measurement": "solubility", "setting": "pH 1", "result": 0.001, "unit": "%"},
      {"measurement": "solubility", "setting": "pH 5", "result": 0.01, "unit": "%"}
    ]},
    {"molecule": "CCOC(=O)C1=C(C)NC(C)=C(C(=O)OC)C1c1cccc([N+](=O)[O-])c1", "note": "(stereo not drawn) [nitrendipine]", "values": [
      {"measurement": "absorption from the colon", "setting": "[2]", "result": "impaired absorption from the colon"}
    ]},
    {"molecule": "CCOC(=O)C1=C(C)NC(C)=C(C(=O)OC)C1c1cccc(Cl)c1Cl", "note": "(stereo not drawn) [Felodipine, felodipine]", "values": [
      {"measurement": "absorption from the colon", "setting": "[2]", "result": "impaired absorption from the colon"}
    ]},
    {"molecule": "Cc1cnc(C(=O)NCCc2ccc(S(=O)(=O)NC(=O)NC3CCCCC3)cc2)cn1", "note": "[Glipizide, glipizide]", "values": [
      {"measurement": "PSD of Output Material After Processing, d (0.5)", "setting": "[1]; [3]", "result": 5.72, "unit": "μm"},
      {"measurement": "PSD of Output Material After Processing, d (0.9)", "setting": "[1]; [3]", "result": 12.06, "unit": "μm"},
      {"measurement": "PSD of Output Material After Processing, d (0.5)", "setting": "[1]; [4]", "result": 3.84, "unit": "μm"},
      {"measurement": "PSD of Output Material After Processing, d (0.9)", "setting": "[1]; [4]", "result": 7.52, "unit": "μm"}
    ]}
  ]
}
